In US20240327354A1, “GRAM-NEGATIVE BACTERIA EFFLUX PUMP INHIBITORS” (INSTITUT NATIONAL DE LA SANTÉ ET DE LA RECHERCHE MÉDICALE, priority 2021, published 2024):
Where a name gives a salt, the structure may show the parent alone.

tested on: E. coli BW25113; assay: Assay 1: growth inhibition of E. coli by sub-inhibitory pyridomycin in combination with examples (resazurin reduction); assay type: cell-based, Escherichia coli; conditions: read-out: EC50 on E. coli with 8 μg/mL of pyridomycin, 8 μg/mL pyridomycin, 5 h, 37° C.
Excerpt: Escherichia coli BW25113 (CGSC 7636) and its derivatives E. coli ΔtolC (JW5503-1, ΔtolC732::kan, CGSC 11430), E. coli ΔacrA (JW0452-3, ΔacrA748::kan, CGSC 11843) and E. coli ΔacrB (JW0451-2, ΔacrB747::kan, CGSC 8609) were obtained from E. coli Genetic Stock Center (CGSC, New Haven, Connecticut) and originated from the Keio Collection (Baba T et al, Mol Sys Biol, 2006). Klebsiella pneumoniae (LMG 2095/ATCC 13883) and K. pneumoniae (ATCC43816), Pseudomonas aeruginosa (PAO1), Acinetobacter baumannii (LMG 1025, ATCC 17978), were obtained from ATCC or BCCM/LMG Bacteria Collection. All bacteria were grown and tested in cation-adjusted Mueller-Hinton broth (CAMHB; BD Difco) at 37° C. For conservation, log phase bacteria were frozen (−80° C.) in CAMHB supplemented with 15% glycerol.
Briefly, E. coli BW25113 were diluted from frozen or growing stocks to an OD600 of 0.0004-0.001 in CAMHB. […] E. coli BW25113 viability was evaluated using the resazurin reduction assay, and measured by fluorescence (POLARstar Omega, BMG Labtech: Ex: 530 nm Em: 590 nm). EC50 were defined as the compound concentration that prevented 50% of resazurin turnover compared to the non-treated bacteria.

SMILES	EC50 [µM]
Clc1cc2cc(N[C@H]3CCCNC3)ccc2nc1N1CCNCC1 (stereo in doubt) [Example 104, 3-chloro-2-piperazin-1-yl-N-(3-piperidyl)quinolin-6-amine;dihydrochloride]	< 5
CN1CCN(c2ncc(C(F)(F)F)cc2Cl)CC1 [Example 1, 1-[3-chloro-5-(trifluoromethyl)-2-pyridyl]-4-methyl-piperazine]	100 to 500
CN1CCN(c2ncc(C(F)(F)F)cc2Br)CC1 [Example 2, 1-[3-bromo-5-(trifluoromethyl)-2-pyridyl]-4-methyl-piperazine]	5 to 100
COC(=O)c1cnc(N2CCN(C)CC2)c(Cl)c1 [Example 3, methyl 5-chloro-6-(4-methylpiperazin-1-yl)pyridine-3-carboxylate]	5 to 100
CN1CCN(c2ncc(Br)cc2Cl)CC1 [Example 4, 1-(5-bromo-3-chloro-2-pyridyl)-4-methyl-piperazine]	5 to 100
CN1CCN(c2ccc(C(F)(F)F)cc2Cl)CC1 [Example 5, 1-[2-chloro-4-(trifluoromethyl)phenyl]-4-methyl-piperazine]	100 to 500
NC1CCN(c2ncc(C(F)(F)F)cc2Cl)CC1 [Example 7, 1-[3-chloro-5-(trifluoromethyl)-2-pyridyl]piperidin-4-amine]	100 to 500
Cc1cnc(N2CCN(C)CC2)c(Cl)c1 [Example 10, 1-(3-chloro-5-methyl-2-pyridyl)-4-methyl-piperazine]	5 to 100
Cc1cnc(N2CCNCC2)c(Cl)c1 [Example 12, 1-(3-chloro-5-methyl-2-pyridyl)piperazine; hydrochloride]	5 to 100
COc1cnc(N2CCNCC2)c(Cl)c1 [Example 13, 1-(3-chloro-5-methoxy-2-pyridyl)piperazine;hydrochloride]	100 to 500
COC(=O)c1cnc(N2CCNCC2)c(Cl)c1 [Example 18, methyl 5-chloro-6-piperazin-1-yl-pyridine-3-carboxylate; hydrochloride]	5 to 100
Clc1cc(Br)cnc1N1CCNCC1 [Example 19, 1-(5-bromo-3-chloro-2-pyridyl)piperazine;hydrochloride]	5 to 100
NCCc1ccc(OC(=O)c2cnc(N3CCNCC3)c(Cl)c2)cc1 [Example 28, [4-(2-aminoethyl)phenyl] 5-chloro-6-piperazin-1-yl-pyridine-3-carboxylate;dihydrochloride]	< 5
NCc1cccc(OC(=O)c2cnc(N3CCNCC3)c(Cl)c2)c1 [Example 29, [3-(aminomethyl)phenyl] 5-chloro-6-piperazin-1-yl-pyridine-3-carboxylate;dihydrochloride]	< 5
CCOC(=O)c1cnc(N2CCNCC2)c(Cl)c1 [Example 32, ethyl 5-chloro-6-piperazin-1-yl-pyridine-3-carboxylate; hydrochloride]	5 to 100
NCCc1ccc(NC(=O)c2cnc(N3CCNCC3)c(Cl)c2)cc1 [Example 34, N-[4-(2-aminoethyl)phenyl]-5-chloro-6-piperazin-1-yl-pyridine-3-carboxamide;dihydrochloride]	5 to 100
CC(=O)Nc1cnc(N2CCNCC2)c(Cl)c1 [Example 35, N-(5-chloro-6-piperazin-1-yl-3-pyridyl)acetamide;hydrochloride]	100 to 500
CS(=O)(=O)Nc1cnc(N2CCNCC2)c(Cl)c1 [Example 36, N-(5-chloro-6-piperazin-1-yl-3-pyridyl)methane sulfonamide;hydrochloride]	100 to 500
Clc1nc2ccccc2cc1N1CCNCC1 [Example 40, 2-chloro-3-piperazin-1-yl-quinoline;hydrochloride]	5 to 100
Cc1cc2nc(Cl)c(N3CCNCC3)nc2cc1C [Example 47, 2-chloro-6,7-dimethyl-3-piperazin-1-yl-quinoxaline;hydrochloride]	< 5
C[C@H]1CN(c2nc3ccccc3nc2Cl)CCN1 [Example 50, 2-chloro-3-[(3S)-3-methylpiperazin-1-yl]quinoxaline;hydrochloride]	5 to 100
Clc1cc2cc(N3CCNCC3)ccc2nc1N1CCNCC1 [Example 56, 3-chloro-2,6-di(piperazin-1 yl)quinoline;dihydrochloride]	< 5
Clc1cc2cc(Br)ccc2nc1N1CCNCC1 [Example 60, 6-bromo-3-chloro-2-piperazin-1-yl-quinoline;hydrochloride]	5 to 100

SMILES	EC50 [µM]
Clc1cc2cc(I)ccc2nc1N1CCNCC1 [Example 61, 3-chloro-6-iodo-2-piperazin-1-yl-quinoline;hydrochloride]	< 5
NCCNc1ccc2nc(N3CCNCC3)c(Cl)cc2c1 [Example 62, N′-(3-chloro-2-piperazin-1-yl-6-quinolyl)ethane-1,2-diamine; dihydrochloride]	< 5
NCCCNc1ccc2nc(N3CCNCC3)c(Cl)cc2c1 [Example 63, N′-(3-chloro-2-piperazin-1-yl-6-quinolyl)propane-1,3-diamine; dihydrochloride]	< 5
O=C1CNCCN1c1ccc2nc(N3CCNCC3)c(Cl)cc2c1 [Example 64, 1-(3-chloro-2-piperazin-1-yl-6-quinolyl)piperazin-2-one;dihydrochloride]	5 to 100
NCC(=O)Nc1ccc2nc(N3CCNCC3)c(Cl)cc2c1 [Example 65, 2-amino-N-(3-chloro-2-piperazin-1-yl-6-quinolyl)acetamide;dihydrochloride]	< 5
Clc1cc2cc(N3CCCCC3)ccc2nc1N1CCNCC1 [Example 67, 3-chloro-2-piperazin-1-yl-6-(1-piperidyl)quinoline;hydrochloride]	5 to 100
NCC1CCCN(c2ccc3nc(N4CCNCC4)c(Cl)cc3c2)C1 (stereo not shown) [Example 68, [1-(3-chloro-2-piperazin-1-yl-6-quinolyl)-3-piperidyl]methanamine;dihydrochloride]	< 5
Clc1cc2ncccc2nc1N1CCNCC1 [Example 69, 3-chloro-2-piperazin-1-yl-1,5-naphthyridine; hydrochloride]	5 to 100
COc1ccc2nc(Cl)c(N3CCNCC3)nc2c1 [Example 70, 2-chloro-6-methoxy-3-piperazin-1-yl-quinoxaline; hydrochloride]	5 to 100
NCCc1ccc(C(=O)Nc2cnc(N3CCNCC3)c(Cl)c2)cc1 [Example 71, 4-(2-aminoethyl)-N-(5-chloro-6-piperazin-1-yl-3-pyridyl)benzamide;dihydrochloride]	5 to 100
Cc1nnc(-c2cnc(N3CCNCC3)c(Cl)c2)o1 [Example 72, 2-(5-chloro-6-piperazin-1-yl-3-pyridyl)-5-methyl-1,3,4-oxadiazole]	5 to 100
Cc1nc(-c2cnc(N3CCNCC3)c(Cl)c2)no1 [Example 73, 3-(5-chloro-6-piperazin-1-yl-3-pyridyl)-5-methyl-1,2,4-oxadiazole;hydrochloride]	5 to 100
NCc1nc(-c2cnc(N3CCNCC3)c(Cl)c2)no1 [Example 74, [3-(5-chloro-6-piperazin-1-yl-3-pyridyl)-1,2,4-oxadiazol-5-yl]methanamine;dihydrochloride]	5 to 100
NCCc1nc(-c2cnc(N3CCNCC3)c(Cl)c2)no1 [Example 75, 2-[3-(5-chloro-6-piperazin-1-yl-3-pyridyl)-1,2,4-oxadiazol-5-yl]ethanamine;dihydrochloride]	< 5
NCCCc1nc(-c2cnc(N3CCNCC3)c(Cl)c2)no1 [Example 76, 3-[3-(5-chloro-6-piperazin-1-yl-3-pyridyl)-1,2,4-oxadiazol-5-yl]propan-1-amine; dihydrochloride]	5 to 100
NCc1cccc(OCc2cnc(N3CCNCC3)c(Cl)c2)c1 [Example 77, [3-[(5-chloro-6-piperazin-1-yl-3-pyridyl)methoxy]phenyl]methanamine;dihydrochloride]	5 to 100
NCc1cccc(COc2cnc(N3CCNCC3)c(Cl)c2)c1 [Example 78, [3-[(5-chloro-6-piperazin-1-yl-3-pyridyl)oxymethyl]phenyl]methanamine;dihydrochloride]	5 to 100
Clc1cc(I)cnc1N1CCNCC1 [Example 79, 1-(3-chloro-5-iodo-2-pyridyl)piperazine]	5 to 100
CC(=O)Nc1cnc(N2CCN(C)CC2)c(Cl)c1 [Example 80, N-[5-chloro-6-(4-methylpiperazin-1-yl)-3-pyridyl]acetamide]	5 to 100
CN1CCN(c2nc3ccccc3cc2Cl)CC1 [Example 81, 3-chloro-2-(4-methylpiperazin-1-yl)quinoline]	5 to 100
O=C(Oc1ccccc1)c1cnc(N2CCNCC2)c(Cl)c1 [Example 84, Phenyl 5-chloro-6-piperazin-1-yl-pyridine-3-carboxylate; 2,2,2-trifluoroacetic acid]	5 to 100
NCC#Cc1cnc(N2CCNCC2)c(Cl)c1 [Example 85, 3-(5-chloro-6-piperazin-1-yl-3-pyridyl)prop-2-yn-1-amine; 2,2,2-trifluoroacetic acid]	5 to 100
NCCC#Cc1cnc(N2CCNCC2)c(Cl)c1 [Example 86, 4-(5-chloro-6-piperazin-1-yl-3-pyridyl)but-3-yn-1-amine; 2,2,2-trifluoroacetic acid]	5 to 100
